Assay results published in patent EP3362444B1, “COMPOUNDS” (Exonate Limited, priority 2015, dated 2017).
pIC50: −log10 of the molar value. “Also recorded” adds a separate entry of the source.

Assays:
[1] = target: T1, SRPK1 (Homo sapiens, UniProt Q96SB4); test: Differential scanning fluorimetry (DSF); type: binding; settings: higher ΔTm indicates higher affinity
T1 construct: 0.1 µg of purified SRPK1 kinase
Experimental: Differential Scanning Fluorimetry was performed as described in Federov et al (2011). […]

[2] = target: T1, SRPK1; test: In vitro kinase assay (Kinase-Glo), SRPK1 inhibition; type: biochemical; settings: for pIC50: SRPK1 inhibition assay, 1 µM ATP, SRSF1 RS peptide, 30°C 10 minutes
Experimental: Candidate compounds were tested for SRPK1 inhibition using a Kinase-Glo assay (Promega, Southampton, UK32). […] Candidate compounds were serially diluted from 10 µM to 0.5 nM and added to the reaction mixture, wells with omitted SRPK1 kinase and omitted compounds were also added as controls. All wells contained 1% DMSO (Fisher Scientific, Loughborough, UK). One micromolar ATP was added, wells minus ATP were used as background controls. The plate was then incubated at 30°C for 10 minutes. An equal volume of Kinase-Glo (25 µL; Promega) was added to each well and the plate read for luminescence using a Fluostar Optima (BMG Labtech) .

[3] = test system: primary RPE cells and ARPE-19 cells; test: qRT-PCR and conventional PCR of VEGF-A alternative splicing; type: cell-based, human; settings: Figures 8 and 9
From the text: Primary human retinal epithelial cells were lysed in Trizol reagent and mRNA was extracted using the method of Chomczynski and Sacchi, or using an RNeasy RNA extraction kit (Qiagen, UK). mRNA was reverse transcribed using Thermoscript reverse transcriptase (Fisher Scientific, UK). The cDNA was amplified using primers designed to amplify the region spanning the proximal and distal splice sites in human VEGF-A165a and VEGF-A165b, to amplify both isoforms and differentiate between them due to the fact that the exon 8b-containing isoform is 66-bp shorter than the exon 8a-containing isoform. The primers used were; 5'-[…]-3' (SEQ ID NO:2) and 5'-[…]-3' (SEQ ID NO:3) with the following conditions; 96°C for 2 min followed by 45 cycles at 96°C-30s, 60°C-30s and 72 °C -30 s. The PCR mix consisted of DNA: 200 ng, MgCl2 0.25 mM, Primer each 1 nM, Taq polymerase 1 unit and dH2O up to 25 µl. Control plasmid concentration: VEGF165a 500 ng and VEGF165b 1 µg. PCR products were run on 3% agarose gels containing 0.5 µg/ml ethidium bromide.
RNA was isolated and reverse transcribed as described above. Quantitative PCR (qPCR) was performed with a LightCycler 480 (Roche) q-PCR machine. The qPCR mix included PCR-grade dH2O 3 µl, PCR Primer (1 µM) 2 µl. […]
VEGF-A alternative splicing was further measured in retinal pigmented epithelial cells by qRT-PCR and conventional PCR.

[4] = test system: laser-induced CNV; test: Laser-induced choroidal neovascularisation (CNV) model, topical eye drops; type: in vivo, C57/B6 mice; settings: for anti-angiogenic efficacy as an eye drop (CNV lesion size): twice daily eye drops, compared with reference compound, Figures 4-7
Experimental: 6-8 week-old female C57/B6 mice were anesthetized with an intraperitoneal injection of a mixture of 50 mg/kg ketamine and 0.5 mg/kg medetomidine. The pupils were immediately dilated by topical (eyedrop) application with a dilator such as 5% phenylephrine hydrochloride and 1% tropicamide. Four photocoagulation lesions were delivered with a green Merilas 532α laser (450 mW, 130 ms) between the "large" retinal vessels in clear space with no vessels in a peripapillary distribution at a distance of 1-2 disc-diameters in each eye. Only clean laser lesions with a subretinal bubble at the time of treatment were included in the study. Immediately following laser photocoagulation the animals were given topical eye drops of candidate compounds twice daily (10 µl, eyes held for 30 seconds to prevent animal wiping drop away).
After one week, mice were anesthetized with an intraperitoneal injection of a mixture of 50 mg/kg ketamine and 0.5 mg/kg medetomidine. The pupils were immediately dilated by topical (eyedrop) application with a dilator such as 5% phenylephrine hydrochloride and 1% tropicamide. Mice were administered an intraperitoneal injection of sodium fluorescein (10%). Phase contrast and green fluorescent fundus images were taken with an angiography microscope and camera with each lesion in focus. The mice were killed by a schedule 1 method and eyes were either unfixed for retinal dissection and protein extraction, or fixed and enucleated and choroids stained and examined.

[5] = test system: retinal pigmented epithelial cells; test: Isoform specific VEGF ELISA in retinal pigmented epithelial cells; type: cell-based; settings: relative to DMSO control; Figure 3
Experimental: 96-well clear microplate (high sensitivity thermo immulon or costar 9018) were coated with 100 µL of 10 µg/ml VEGFxxxb or 0.25 µg/ml anti-hVEGF165a per well. The plate was sealed with parafilm and incubated overnight on the shaker at room temp. Each well was aspirated and washed with Wash Buffer (200 µl PBS-Tween 0.05%), two times for a total of three washes. After the last wash, remaining Wash Buffer was removed by inverting the plate and blotting it against clean paper towels. Plates were blocked by adding 100 µl of Reagent Diluent (1%BSA/PBS) to each well and incubated at room temp on a shaker for 2 hours. The aspiration/wash step was repeated. 100 µL of standards or samples in 1% BSA/PBS were added to each well, covered with parafilm and incubated 2 hours at room temperature. The aspiration/wash was repeated and 100 µL of 100 ng/ml Detection Antibody (BAF293), diluted in Reagent Diluent, was added to each well which were covered with parafilm and incubated 2 hours at room temp. The aspiration/wash was repeated and 100 µL of the working dilution of Streptavidin-HRP (1:200 dilution) was added to each well. […] The optical density of each well was measured immediately, using a microplate reader set to 450 nm.
To determine whether these compounds could switch splicing of VEGF isoforms, VEGF was measured in retinal pigmented epithelial cells by isoform specific ELISA.

T1 sequence (Q96SB4 whole entry): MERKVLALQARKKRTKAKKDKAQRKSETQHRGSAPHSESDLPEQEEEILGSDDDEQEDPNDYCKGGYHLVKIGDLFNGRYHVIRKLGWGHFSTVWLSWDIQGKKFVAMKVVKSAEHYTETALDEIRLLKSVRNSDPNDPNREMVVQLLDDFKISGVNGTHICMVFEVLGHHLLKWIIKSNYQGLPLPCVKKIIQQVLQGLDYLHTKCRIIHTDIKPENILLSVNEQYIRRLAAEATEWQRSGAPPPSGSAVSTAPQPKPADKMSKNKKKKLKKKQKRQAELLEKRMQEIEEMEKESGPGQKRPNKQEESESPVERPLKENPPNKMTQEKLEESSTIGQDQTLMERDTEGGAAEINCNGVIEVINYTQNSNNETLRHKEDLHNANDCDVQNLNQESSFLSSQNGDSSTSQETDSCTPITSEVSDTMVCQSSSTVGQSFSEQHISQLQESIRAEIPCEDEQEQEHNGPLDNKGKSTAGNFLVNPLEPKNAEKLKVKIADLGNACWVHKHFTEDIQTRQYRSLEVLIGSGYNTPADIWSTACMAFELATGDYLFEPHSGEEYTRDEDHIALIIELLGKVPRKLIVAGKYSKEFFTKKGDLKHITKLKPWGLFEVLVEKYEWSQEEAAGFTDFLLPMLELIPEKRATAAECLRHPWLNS

Structure (SMILES)	DSF (ΔTm/°C) [1] [°C]	pIC50 [2]	other results
O=C(Nc1cc(C(F)(F)F)ccc1N1CCN(Cc2cscn2)CC1)c1ccco1 [Compound 11, N-(2-(4-(thiazol-4-ylmethyl)piperazin-1-yl)-5-(trifluoromethyl)-phenyl)furan-2-carboxamide]	12.94		
O=C(Nc1cc(C(F)(F)F)ccc1N1CCN(Cc2cscn2)CC1)c1ccc(C2CCOCC2)o1 [Compound 19, 5-(tetrahydro-2H-pyran-4-yl)-N-(2-(4-(thiazol-4-ylmethyl)piperazin-1-yl)-5-(trifluoromethyl)phenyl)furan-2-carboxamide]	18.03	8.77	
O=C(Nc1cc(C(F)(F)F)ccc1N1CCN(Cc2ccco2)CC1)c1ccccn1 [Compound 28, N-(2-(4-(furan-2-ylmethyl)piperazin-1-yl)-5-(trifluoromethyl)phenyl)-picolinamide]	14.44		
Cc1ccc(C(=O)Nc2cc(C(F)(F)F)ccc2N2CCN(Cc3cn(Cc4ccccc4)nn3)CC2)o1 [Compound 7, N-(2-(4-((1-benzyl-1H-1,2,3-triazol-4-yl)methyl)piperazin-1-yl)-5-(trifluoromethyl)phenyl)-5-methylfuran-2-carboxamide]	8.84	6.47	
O=C(Nc1cc(Cl)ccc1N1CCN(Cc2ccco2)CC1)c1ccccn1 [Compound 29, N-(5-chloro-2-(4-(furan-2-ylmethyl)piperazin-1-yl)phenyl)picolinamide]	11.97		
O=C(Nc1cc(C(F)(F)F)ccc1N1CCN(Cc2cc[nH]n2)CC1)c1ccc(C2CCOCC2)o1 [Compound 14, N-(2-(4-((1H-pyrazol-3-yl)methyl)piperazin-1-yl)-5-(trifluoromethyl)-phenyl)-5-(tetrahydro-2H-pyran-4-yl)furan-2-carboxamide]	17.36	8.46	levels of VEGF165b relative to VEGF165 RNA [3]: decrease VEGF-A165a/VEGF165b mRNA isoform expression; also recorded: decrease in VEGF165
O=C(Nc1cc(C(F)(F)F)ccc1N1CCN(Cc2cncs2)CC1)c1ccco1 [Compound 13, N-(2-(4-(thiazol-5-ylmethyl)piperazin-1-yl)-5-(trifluoromethyl)-phenyl)furan-2-carboxamide]	12.99	7.40	
Cn1ccc(CN2CCN(c3ccc(C(F)(F)F)cc3NC(=O)c3ccco3)CC2)n1 [Compound 10, N-(2-(4-((1-methyl-1H-pyrazol-3-yl)methyl)piperazin-1-yl)-5-(trifluoromethyl)phenyl)furan-2-carboxamide]	10.87		
O=C(Nc1cc(C(F)(F)F)ccc1N1CCN(Cc2cocn2)CC1)c1ccc(-c2ccncc2)o1 [Compound 17, N-(2-(4-(oxazol-4-ylmethyl)piperazin-1-yl)-5-(trifluoromethyl)phenyl)-5-(pyridin-4-yl)furan-2-carboxamide]			anti-angiogenic efficacy as an eye drop (CNV lesion size) [4]: same anti-angiogenic activity on lesion size and the same efficacy as reference compounds; VEGF165b and VEGF165 protein [5]: increase in VEGF165b, but not VEGF165 protein
O=C(Nc1cc(C(F)(F)F)ccc1N1CCN(Cc2cc[nH]n2)CC1)c1ccco1 [Compound 9, N-(2-(4-((1H-pyrazol-3-yl)methyl)piperazin-1-yl)-5-(trifluoromethyl)-phenyl)furan-2-carboxamide]	11.64	7.20	
O=C(Nc1cc(C(F)(F)F)ccc1N1CCN(Cc2cocn2)CC1)c1ccc(-c2ccncc2)o1 [N-(2-(4-(oxazol-4-ylmethyl)piperazin-1-yl)-5-(trifluoromethy] [N-(2-(4-(oxazol-4-ylmethyl)piperazin-1-yl)-5-(trifluoromethyl)phenyl)-5-(pyridin-4-yl)furan-2-carboxamide]			factor more effective than the known pazopanib-based eye drop treatment for AMD ([4]; eye drop): 10; anti-angiogenic efficacy as an eye drop (CNV lesion size) [4]: same efficacy
Cc1ccc(C(=O)Nc2cc(C(F)(F)F)ccc2N2CCN(Cc3ccco3)CC2)o1 [Compound 8, 5-methyl-N-(2-(4-((furan-2-yl)methyl)piperazin-1-yl)-5-(trifluoromethyl)phenyl)furan-2-carboxamide]	15.95	7.75	potency against SRPK1 relative to analogous compounds in which R3 is a pyridyl ring ([2]; by kinase assay or differential scanning fluorimetry, Figures 1 and 2): improved potency
O=C(Nc1cc(C(F)(F)F)ccc1N1CCN(Cc2ccno2)CC1)c1ccc(C2CCOCC2)o1 [Compound 64, N-(2-(4-(isoxazol-5-ylmethyl)piperazin-1-yl)-5-(trifluoro-methyl)phenyl)-5-(tetrahydro-2H-pyran-4-yl)furan-2-carboxamide]		8.26	
